According to paper PMC11224109, “Synthesis and preclinical evaluation of novel ^18F-vancomycin-based tracers for the detection of bacterial infections using positron emission tomography” (European Journal of Nuclear Medicine and Molecular Imaging, 2024):
Where two headings read alike, the source gives them in different places.

Key:
S. aureus [1] = assay: In vitro tracer binding to S. aureus; set-up: species or system Staphylococcus aureus; settings: clinical isolate, culture OD600 about 3.0, 37 °C, sampled at 0, 15 and 30 min, washed twice, gamma counter
Method: (§1) Single colonies of clinical S. aureus and E. coli isolates were used to inoculate TSB and incubated overnight. From the overnight cultures, fresh cultures were started and grown to an optical density at 600 nm (OD600) of approximately 3.0. Both strains were incubated with tracer (3.5 MBq in 1 mL 0.9% saline) in a water bath at 37 °C. The final tracer concentration was 120 kBq ± 28 (38.6 pg ± 9.1 and 0.5 pg ± 0.1 of [^18F]BODIPY-FL-vancomycin and [^18F]PQ-VE1-vancomycin, respectively) per mL culture. At fixed time intervals (0, 15 and 30 min), aliquots were collected (2.0 mL in a 2 mL Eppendorf tube) and washed twice with sterile PBS (1.0 mL per washing step). In each washing step, the bacteria were pelleted by centrifugation (10.000 rpm, 60 s) and resuspended in fresh PBS. […] Measurements were corrected for background and decay. Results are reported as counts per s (Bq). To correlate bound tracer with the number of bacteria in a sample, the bacterial suspensions (2 ×) were plated and CFUs were counted.

E. coli [2] = assay: In vitro tracer binding to E. coli; set-up: species or system Escherichia coli; settings: clinical isolate, culture OD600 about 3.0, 37 °C, sampled at 0, 15 and 30 min, washed twice, gamma counter
Method: as §1

[3] = test system: S. aureus USA300 MRSA strain; assay: Competition with unlabeled vancomycin; format: binding, Staphylococcus aureus; settings: for Tracer binding to S. aureus at a concentration of 1024 µg/mL vancomycin / Tracer binding to S. aureus at vancomycin concentrations below 2 µg/mL / Tracer binding to S. aureus at vancomycin concentrations of up to 64 µg/mL: S. aureus USA300, OD600 0.2, 125 kBq tracer per mL, 30 min incubation, gamma counter
Method: [^18F]FB-vancomycin was excluded due to its limited in vitro and in vivo stability. On the day of the experiment, a fresh culture was started in 10 mL of TSB and grown to an OD600 of 2.0. […] Bacteria were added to the dilutions to obtain a final OD600 of 0.2 and the vial was briefly vortexed to ensure proper mixing. Tracer was added (125 kBq per mL, 40.3 pg and 0.5 pg of [^18F]BODIPY-FL-vancomycin and [^18F]PQ-VE1-vancomycin, respectively) and the vial was vortexed again. After 30 min incubation, aliquots were collected in 2 mL Eppendorf tubes and washed twice with PBS by centrifugation. […] Measurements were corrected for background and decay. Results are reported as 10^3 counts per s (kBq).

[4] = test system: S. epidermidis ATCC 35,984; settings: ATCC 35, 17 h
Method: From a single colony an overnight culture was inoculated in Mueller Hinton Broth (MHB) and incubated overnight. On the day of the experiment, a fresh culture was started in 10 mL of MHB until exponential phase was reached. From this, the culture was diluted to an OD600 of 0.01 for the MIC experiment. […] Growth was recorded using a BioTeK Synergy2 microplate spectrophotometer (Agilent, Santa Clara, United States).

[5] = up to 120 min, previously shown; cited from earlier work
Method: Tracer stability was assessed in both PBS and human plasma. […] In contrast, > 90% of the [^18F]BODIPY-FL-vancomycin remained stable in PBS and plasma for up to 120 min, as was also previously shown for [^18F]PQ-VE1-vancomycin [44].

E. coli [6] = settings: previously reported; cited from earlier work
Method: (§2) In vitro binding of [^18F]BODIPY-FL-vancomycin and [^18F]FB-vancomycin to the Gram-positive bacterium S. aureus and the Gram-negative bacterium E. coli was assayed by incubating the bacteria with either one of the two tracers and collecting samples at fixed time intervals to determine the radioactivity associated with the bacteria.

S. aureus [7] = settings: previously reported; cited from earlier work
Method: as §2

Compound	Binding to S. aureus (S. aureus [1])	Binding to E. coli (E. coli [2])	Vancomycin concentrations at which tracer binding is outcompeted, compared with [^18F]PQ-VE1-vancomycin ([3]; S. aureus USA300, 30 min incubation)	Tracer binding to S. aureus at a concentration of 1024 µg/mL vancomycin [3]	Tracer binding to S. aureus at vancomycin concentrations below 2 µg/mL [3]	Tracer binding to S. aureus at vancomycin concentrations of up to 64 µg/mL [3]	MIC [4]	Tracer remaining stable in PBS [5]	Tracer remaining stable in human plasma [5]	Binding to E. coli (E. coli [6])	Binding to S. aureus (S. aureus [7])
CC(C)C[C@H](C(=O)N[C@H]1C(=O)N[C@@H](CC(N)=O)C(=O)N[C@H]2C(=O)N[C@H]3C(=O)N[C@H](C(=O)N[C@H](C(=O)O)c4cc(O)cc(O)c4-c4cc3ccc4O)[C@H](O)c3ccc(c(Cl)c3)Oc3cc2cc(c3O[C@@H]2O[C@H](CO)[C@@H](O)[C@H](O)[C@H]2O[C@H]2C[C@](C)(N)[C@H](O)[C@H](C)O2)Oc2ccc(cc2Cl)[C@H]1O)N(C)C(=O)c1ccc(F)cc1 [[^18F]FB-vancomycin]	no bacterial binding was observed	no bacterial binding was observed									
Cc1cc(C)n2c1C=C1C=CC(CCC(=O)N(C)[C@H](CC(C)C)C(=O)N[C@H]3C(=O)N[C@@H](CC(N)=O)C(=O)N[C@H]4C(=O)N[C@H]5C(=O)N[C@H](C(=O)N[C@H](C(=O)O)c6cc(O)cc(O)c6-c6cc5ccc6O)[C@H](O)c5ccc(c(Cl)c5)Oc5cc4cc(c5O[C@@H]4O[C@H](CO)[C@@H](O)[C@H](O)[C@H]4O[C@H]4C[C@](C)(N)[C@H](O)[C@H](C)O4)Oc4ccc(cc4Cl)[C@H]3O)=[N+]1[B-]2(F)F [[^18F]BODIPY-FL-vancomycin]	rapid and selective binding to S. aureus	not to E. coli	slightly lower	reduced to baseline	not significantly inhibited	signal over background was still detected	16 µg/mL				
CN[C@H](CC(C)C)C(=O)N[C@H]1C(=O)N[C@@H](CC(N)=O)C(=O)N[C@H]2C(=O)N[C@H]3C(=O)N[C@H](C(=O)N[C@H](C(=O)O)c4cc(O)cc(O)c4-c4cc3ccc4O)[C@H](O)c3ccc(c(Cl)c3)Oc3cc2cc(c3O[C@@H]2O[C@H](CO)[C@@H](O)[C@H](O)[C@H]2O[C@H]2C[C@](C)(NC(=O)c3ccc4c5c(c6ccccc6c4c3)OCC(OCCF)O5)[C@H](O)[C@H](C)O2)Oc2ccc(cc2Cl)[C@H]1O (stereo partly shown) [[^18F]PQ-VE1-vancomycin]				reduced to baseline	not significantly inhibited	signal over background was still detected		over 90%	over 90%	not to E. coli	rapid and selective binding to S. aureus
